# Results from patent US20040038233A1, “Diagnosis kit for mycobacterium species indentification and drug-resistance detection and manufacturing method thereof” (priority 2000, published 2004).
# Experiments:
# [1] = tested on: strains having mutations of 511 (Leu>Pro), 516 (Asp>Tyr), 516 (Asp>Val), and 522 (Ser>Leu); settings: strains with mutations 511 (Leu>Pro); cited from earlier work
# [2] = tested on: Mycobacterium tuberculosis; format: cell-based
smiles,measurement,setting,value
"CO[C@H]1/C=C/O[C@@]2(C)Oc3c(C)c(O)c4c(c3C2=O)C2=NC3(CCN(CC(C)C)CC3)NC2=C(NC(=O)/C(C)=C\C=C\[C@H](C)[C@H](O)[C@@H](C)[C@@H](O)[C@@H](C)[C@H](OC(C)=O)[C@@H]1C)C4=O [rifabutin, Rifabutin]",resistance classification,[1],low-level resistance
same,rifabutin MIC,[1],≤ 5 µg/mL
same,drug-susceptibility test result,[2],resistance
